Test results taken from patent US8586597B2, “6-fluoro-3-phenyl-2-[1-(9H-purin-6-ylamino)ethyl]-3H-quinazolin-4-one as an inhibitor of human phosphatidylinositol 3-kinase delta” (ICOS Corporation, priority 2004, dated 2013).

Assays:
[1] = biological target: PI3Kδ (Homo sapiens (Human), UniProt O00329); experiment: Biochemical assay of PI3K potency using 20 μM ATP (PI3Kδ); settings: read-out: Delta IC50
Source text: (§1) Recombinant PI3K heterodimeric complexes consisting of a p110 catalytic subunit and a p85 regulatory subunit were overexpressed using the BAC-TO-BAC® HT baculovirus expression system (GIBCO/BRL), and then purified for use in biochemical assays. The four Class I PI 3-kinases were cloned into baculovirus vectors as follows:
p110δ: A FLAG®-tagged version of human p110δ (SEQ ID NOS: 1 and 2) (see Chantry et al., J. Biol. Chem., 272:19236-41 (1997)) was subcloned using standard recombinant DNA techniques into the BamH1-Xba1 site of the insect cell expression vector pFastbac HTb (Life Technologies, Gaithersburg, Md.), such that the clone was in frame with the His tag of the vector. The FLAG® system is described in U.S. Pat. Nos. 4,703,004; 4,782,137; 4,851,341; and 5,011,912, and reagents are available from Eastman Kodak Co.
(§2) Biochemical Assay using 20 μM ATP
Using the method described in Example 2, compounds of the invention were tested for inhibitory activity and potency against PI3Kδ, and for selectivity for PI3Kδ versus other Class I PI3K isozymes.
(§3) The initial selectivity assays were performed identically to the selectivity assay protocol in Example 2, except using 100 μL Ecoscint for radiolabel detection.
(§4) Subsequent selectivity assays were done similarly using the same 3× substrate stocks except they contained 0.05 mCi/mL γ[^32P]ATP and 3 mM PIP2. Subsequent selectivity assays also used the same 3× enzyme stocks, except they now contained 3 nM of any given PI3K isoform.
(§5) For all selectivity assays, the test compounds were weighed out and dissolved into 10-50 mM stocks in 100% DMSO (depending on their respective solubilities) and stored at −20° C. Compounds were thawed (to room temperature or 37° C.), diluted to 300 μM in water from which a 3-fold dilution series into water was done. From these dilutions, 20 μL was added into the assay wells alongside water blanks used for the enzyme (positive) control and the no enzyme (background) control. The remainder of the assay was performed essentially according to the selectivity assay protocol in Example 2.

[2] = tested on: human neutrophils (PMN); experiment: Neutrophil (PMN) elastase release (fMLP-induced elastase exocytosis); format: cell-based
Experimental: Aliquots (8 mL) of heparinized blood from healthy volunteers are layered on 3 mL cushions of 7.3% FICOLL® (Sigma, St. Louis, Mo.) and 15.4% HYPAQUE® (Sigma) and centrifuged at 900 rpm for 30 min at room temperature in a table top centrifuge (Beckman). The neutrophil-rich band just above the FICOLL®-HYPAQUE® cushion is collected and washed with Hanks' balanced salt solution (HESS) containing 0.1% gelatin. Residual erythrocytes are removed by, hypotonic lysis with 0.2% NaCl. The neutrophil preparation is washed twice with HESS containing 0.1% gelatin and used immediately.
In addition to superoxide generation, activated neutrophils also respond by releasing several proteases that are responsible for the destruction of tissues and cartilage during inflammation. As an indication of protease release, the effect of present compound on elastase exocytosis is measured. Elastase exocytosis is quantitated by modification of the procedure described by Ossanna et al. (J. Clin. Invest., 77:1939-51 (1986)), as follows. Purified human neutrophils (0.2×10^6) (treated with either DMSO or a serial dilution of a present compound in DMSO) are stimulated with fMLP in PBS containing 0.01 mg/mL cytochalasin B, 1.0 μM sodium azide (NaN3), 5 μg/mL L-methionine and 1 μM fMLP for 90 min at 37° C. in a 96-well plate. At the end of the incubation period, the plate is centrifuged for 5 min at 1000 rpm, and 90 μL of the supernatant is transferred to 10 μL of 10 mM solution of an elastase substrate peptide, MeO-suc-Ala-Ala-Pro-Val-pNA, wherein MeO-suc=methoxy-succinyl; pNA=p-nitroanilide (Calbiochem, San Diego, Calif.). Absorbance at 410 nm is monitored for 2 hr in a 96-well plate reader. To measure the relative amounts of elastase excytosed, all absorbance values are normalized to the values without any inhibitor.
Using the methods described in Example 2, compounds of the invention were tested for inhibitory activity and potency in an assay of neutrophil (PMN) elastase release. In Table 1, the values shown are effective concentrations of the compound (EC50; μM).

[3] = biological target: PI3Kβ (Homo sapiens (Human), UniProt P42338); experiment: Biochemical assay of PI3K selectivity (PI3Kβ); settings: ratio of IC50 for PI3Kβ relative to PI3Kδ
Sequence of PI3Kβ (P42338 2-1070): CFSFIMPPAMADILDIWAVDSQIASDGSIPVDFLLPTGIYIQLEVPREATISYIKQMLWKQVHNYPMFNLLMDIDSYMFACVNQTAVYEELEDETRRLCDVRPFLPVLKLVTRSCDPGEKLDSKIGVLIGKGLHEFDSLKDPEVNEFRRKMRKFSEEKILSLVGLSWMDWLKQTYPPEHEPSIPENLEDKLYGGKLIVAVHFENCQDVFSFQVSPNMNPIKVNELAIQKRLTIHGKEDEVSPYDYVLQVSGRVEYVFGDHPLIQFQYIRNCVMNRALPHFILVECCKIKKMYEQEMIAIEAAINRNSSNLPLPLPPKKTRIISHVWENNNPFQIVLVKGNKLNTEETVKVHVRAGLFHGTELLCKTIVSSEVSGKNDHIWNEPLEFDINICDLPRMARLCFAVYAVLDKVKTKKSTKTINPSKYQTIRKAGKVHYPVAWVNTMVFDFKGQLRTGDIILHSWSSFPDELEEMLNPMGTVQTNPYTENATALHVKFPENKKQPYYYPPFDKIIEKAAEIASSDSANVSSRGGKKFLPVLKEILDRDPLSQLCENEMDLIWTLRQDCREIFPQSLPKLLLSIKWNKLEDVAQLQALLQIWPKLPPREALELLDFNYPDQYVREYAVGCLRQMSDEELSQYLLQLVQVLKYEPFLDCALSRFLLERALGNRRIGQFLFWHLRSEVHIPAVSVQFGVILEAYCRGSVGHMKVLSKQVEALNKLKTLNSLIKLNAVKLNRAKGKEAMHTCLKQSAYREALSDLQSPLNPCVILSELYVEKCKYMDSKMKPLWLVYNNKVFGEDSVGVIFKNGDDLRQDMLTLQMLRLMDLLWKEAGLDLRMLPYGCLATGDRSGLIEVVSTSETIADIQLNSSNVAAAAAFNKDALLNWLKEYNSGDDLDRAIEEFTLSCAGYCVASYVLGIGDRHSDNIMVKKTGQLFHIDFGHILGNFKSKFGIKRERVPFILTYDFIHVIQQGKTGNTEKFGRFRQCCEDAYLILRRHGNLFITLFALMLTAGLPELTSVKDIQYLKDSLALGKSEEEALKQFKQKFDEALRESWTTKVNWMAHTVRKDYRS
Sequence of PI3Kβ (P27986 whole entry partner): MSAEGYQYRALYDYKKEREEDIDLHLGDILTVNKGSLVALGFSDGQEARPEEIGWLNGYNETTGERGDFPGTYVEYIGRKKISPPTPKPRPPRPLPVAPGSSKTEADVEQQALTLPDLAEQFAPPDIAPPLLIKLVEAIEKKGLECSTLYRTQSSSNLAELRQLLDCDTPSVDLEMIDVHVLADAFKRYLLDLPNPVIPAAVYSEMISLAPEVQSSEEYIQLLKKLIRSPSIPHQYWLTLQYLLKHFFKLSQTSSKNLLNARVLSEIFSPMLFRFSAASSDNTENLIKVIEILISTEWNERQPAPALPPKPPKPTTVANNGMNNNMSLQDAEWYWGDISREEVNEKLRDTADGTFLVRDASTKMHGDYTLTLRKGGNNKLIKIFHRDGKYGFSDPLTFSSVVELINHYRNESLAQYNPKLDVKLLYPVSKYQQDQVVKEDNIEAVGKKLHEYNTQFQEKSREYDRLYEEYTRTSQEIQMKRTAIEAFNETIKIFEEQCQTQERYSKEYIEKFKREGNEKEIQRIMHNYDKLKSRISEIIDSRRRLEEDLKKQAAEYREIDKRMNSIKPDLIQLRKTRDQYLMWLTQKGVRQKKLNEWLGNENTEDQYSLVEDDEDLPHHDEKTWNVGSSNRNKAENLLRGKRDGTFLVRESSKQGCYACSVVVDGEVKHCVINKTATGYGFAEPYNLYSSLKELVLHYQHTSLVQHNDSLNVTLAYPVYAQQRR
Source text: as §1
p110β: A p110β (see Hu et al., Mol. Cell. Biol., 13:7677-88 (1993)) clone was amplified from the human MARATHON® Ready spleen cDNA library (Clontech, Palo Alto Calif.) according to the manufacturer's protocol using the following primers: […]
as §2
(§6) Using the method described in Example 2, compounds of the invention were tested for inhibitory activity and potency against PI3Kδ, and for selectivity for PI3Kδ versus other Class I PI3K isozymes. In Table 1, IC50 values (μM) are given for PI3Kδ (“Delta”), and may be calculated for the other isoforms using the ratios of IC50 values discussed below. To illustrate selectivity of the compounds, the ratios of the IC50 values of the compounds for PI3Kα, PI3Kβ, and PI3Kγ relative to PI3Kδ are given, respectively, as “Alpha/Delta Ratio,” “Beta/Delta Ratio,” and “Gamma/Delta Ratio.”
as §3, §4, §5

[4] = biological target: PI3Kγ (Homo sapiens (Human), UniProt P48736); experiment: Biochemical assay of PI3K selectivity (PI3Kγ); settings: ratio of IC50 for PI3Kγ relative to PI3Kδ
Sequence of PI3Kγ (P48736 whole entry): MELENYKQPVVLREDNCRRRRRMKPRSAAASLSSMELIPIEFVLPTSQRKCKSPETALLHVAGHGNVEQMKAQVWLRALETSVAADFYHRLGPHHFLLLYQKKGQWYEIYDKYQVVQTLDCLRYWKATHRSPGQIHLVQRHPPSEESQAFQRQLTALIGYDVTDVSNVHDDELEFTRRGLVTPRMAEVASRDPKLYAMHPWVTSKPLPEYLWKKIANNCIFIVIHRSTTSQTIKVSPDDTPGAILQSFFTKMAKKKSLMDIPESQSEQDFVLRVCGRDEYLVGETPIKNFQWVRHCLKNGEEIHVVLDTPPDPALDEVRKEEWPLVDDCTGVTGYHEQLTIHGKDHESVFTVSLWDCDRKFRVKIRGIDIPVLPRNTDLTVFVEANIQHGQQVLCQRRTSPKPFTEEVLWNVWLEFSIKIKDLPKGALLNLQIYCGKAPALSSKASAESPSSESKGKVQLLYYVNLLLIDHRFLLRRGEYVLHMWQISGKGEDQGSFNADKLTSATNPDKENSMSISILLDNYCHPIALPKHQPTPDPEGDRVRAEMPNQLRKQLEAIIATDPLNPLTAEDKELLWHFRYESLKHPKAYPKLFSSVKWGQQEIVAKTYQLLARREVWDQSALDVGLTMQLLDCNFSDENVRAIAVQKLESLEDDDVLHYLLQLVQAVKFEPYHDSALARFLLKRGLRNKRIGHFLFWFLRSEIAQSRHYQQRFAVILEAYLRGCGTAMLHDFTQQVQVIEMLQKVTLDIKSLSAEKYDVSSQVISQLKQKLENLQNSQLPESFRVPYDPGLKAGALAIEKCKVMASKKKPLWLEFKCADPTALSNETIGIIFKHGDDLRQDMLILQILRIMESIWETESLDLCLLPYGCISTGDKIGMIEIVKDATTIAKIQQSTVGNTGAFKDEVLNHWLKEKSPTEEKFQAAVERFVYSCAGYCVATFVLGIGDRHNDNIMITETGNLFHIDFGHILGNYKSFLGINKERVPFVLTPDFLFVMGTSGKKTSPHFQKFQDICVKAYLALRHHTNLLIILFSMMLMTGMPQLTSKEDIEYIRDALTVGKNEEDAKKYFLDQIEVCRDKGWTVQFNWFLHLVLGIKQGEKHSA
Source text: p110γ: The p110γ cDNA (see Stoyanov et al., Science, 269:690-93 (1995)) was amplified from a human Marathon Ready spleen cDNA library (Clontech) according to the manufacturer's protocol using the following primers: […]
Recombinant baculoviruses containing the above clones were generated using manufacturer's recommended protocol (Life Technologies). Baculoviruses expressing His-tagged p110α, p110β, or p110δ catalytic subunit and p85 subunit were coinfected into Sf21 insect cells. To enrich the heterodimeric enzyme complex, an excess amount of baculovirus expressing p85 subunit was infected, and the His-tagged p110 catalytic subunit complexed with p85 was purified on nickel affinity column. […] In an alternate approach, p101 can be cloned into baculovirus, to permit coexpression with its preferred binding partner p110γ.
as §2, §6, §3, §4, §5

[5] = biological target: PI3Kα (Homo sapiens (Human), UniProt P42336); experiment: Biochemical assay of PI3K selectivity (PI3Kα); settings: ratio of IC50 for PI3Kα relative to PI3Kδ
Sequence of PI3Kα (P42336 whole entry): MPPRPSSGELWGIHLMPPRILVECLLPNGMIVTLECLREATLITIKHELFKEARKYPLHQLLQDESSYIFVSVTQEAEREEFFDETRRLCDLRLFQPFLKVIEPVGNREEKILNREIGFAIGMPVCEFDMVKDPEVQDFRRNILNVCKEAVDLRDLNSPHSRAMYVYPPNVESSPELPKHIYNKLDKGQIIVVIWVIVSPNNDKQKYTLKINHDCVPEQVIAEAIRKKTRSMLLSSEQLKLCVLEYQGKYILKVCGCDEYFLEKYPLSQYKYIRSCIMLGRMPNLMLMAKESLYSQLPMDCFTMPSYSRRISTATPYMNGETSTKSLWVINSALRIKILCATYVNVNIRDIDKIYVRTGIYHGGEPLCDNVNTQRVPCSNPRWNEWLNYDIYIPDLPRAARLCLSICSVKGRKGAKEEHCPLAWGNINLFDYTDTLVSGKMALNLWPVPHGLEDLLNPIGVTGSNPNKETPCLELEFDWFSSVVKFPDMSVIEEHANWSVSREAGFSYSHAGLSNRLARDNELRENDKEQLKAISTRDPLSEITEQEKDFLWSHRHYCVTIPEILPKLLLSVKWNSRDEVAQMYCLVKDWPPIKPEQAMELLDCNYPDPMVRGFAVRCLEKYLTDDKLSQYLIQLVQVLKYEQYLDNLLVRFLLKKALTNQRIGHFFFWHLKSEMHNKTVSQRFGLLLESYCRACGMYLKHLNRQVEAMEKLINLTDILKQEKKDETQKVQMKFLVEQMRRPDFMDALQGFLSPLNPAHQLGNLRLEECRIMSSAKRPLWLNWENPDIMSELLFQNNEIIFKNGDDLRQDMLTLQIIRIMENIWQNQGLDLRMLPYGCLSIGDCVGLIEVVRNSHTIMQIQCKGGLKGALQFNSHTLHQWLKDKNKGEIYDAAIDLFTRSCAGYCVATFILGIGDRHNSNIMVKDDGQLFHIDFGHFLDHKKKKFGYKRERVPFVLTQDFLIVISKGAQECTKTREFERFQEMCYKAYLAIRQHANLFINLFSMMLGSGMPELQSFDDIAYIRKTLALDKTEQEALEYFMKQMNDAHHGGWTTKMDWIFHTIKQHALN
Sequence of PI3Kα (P27986 whole entry partner): as the sequence (P27986 whole entry partner) above
Source text: as §1
p110α: Similar to the method used for p110δ, described above, a FLAG®-tagged version of p110α (see Volinia et al., Genomics, 24(3):427-77 (1994)) was subcloned in BamH1-HindIII sites of pFastbac HTb (Life Technologies) such that the clone was in frame with the His tag of the vector.
as §2, §6, §3, §4, §5

[6] = tested on: Human B Lymphocyte; experiment: Human B lymphocyte assay; format: cell-based
Experimental: Heparinized blood (200 mL) from healthy volunteers is mixed with an equal volume of D-PBS, layered on 10×10 mL FICOLL-PAQUE® (Pharmacia), and centrifuged at 1600 rpm for 30 min at room temperature. Peripheral blood mononuclear cells (PBMC) are collected from the FICOLL®/serum interface, overlayed on 10 mL fetal bovine serum (FBS) and centrifuged at 800 rpm for 10 min to remove platelets. After washing, cells are incubated with DYNAL® Antibody Mix (B cell kit) (Dynal Corp., Lake Success, N.Y.) for 20 min at 4-8° C. Following the removal of unbound antibody, PBL are mixed with anti-mouse IgG coated magnetic beads (Dynal) for 20 min at 4-8° C. with gentle shaking followed by elimination of labeled non-B cells on the magnetic bead separator. This procedure is repeated once more. The B cells are resuspended in RPMI-1640 with 10% FBS, and kept on ice until further use.
To study antibody production, B cells are aliquoted at 50−75×10^3 cells/well into 96-well plate with or without inhibitor, to which IL-2 (100 U/mL) and PANSORBIN® (Calbiochem) Staphylococcus aureus cells (1:90,000) were added. Part of the media is removed after 24-36 hr, and fresh media (with or without inhibitor) and IL-2 is added. Cultures are incubated at 37° C., in the presence of a CO2 incubator for additional 7 days. Samples from each condition (in triplicate) are removed, and analyzed for IgG and IgM, as measured by ELISA. Briefly, IMMULON® 4 96-well plates are coated (50 μL/well) with either 150 ng/mL donkey antihuman IgG (H+L) (Jackson ImmunoResearch, West Grove Pa.), or 2 μg/mL donkey antihuman IgG+IgM (H+L) (Jackson ImmunoResearch) in bicarbonate buffer, and left overnight at 4° C. After washing three times with phosphate buffered saline containing 0.1% TWEEN®-80 (PBST) (350 μL/well), and blocking with 3% goat serum in PEST (100 μL/well) for 1 hr at room temperature, samples (100 μL/well) of B cell spent media diluted in PBST are added. […] Color development is stopped by H2SOa solution, and plates were read on an ELISA plate reader.

[7] = tested on: basophils; experiment: Basophil histamine release assay; format: cell-based; settings: highest concentration, 10,000 nM
Experimental: Assessment of the effect of a compound of the invention on basophil function is tested using a conventional histamine release assay, generally in accordance with the method described in Miura et al., J. Immunol., 162:4198-206 (1999). Briefly, enriched basophils are preincubated with test compounds at several concentrations from 0.1 nM to 1,000 nM for 10 min at 37° C. Then, polyclonal goat antihuman IgE (0.1 μg/mL) or fMLP is added, and allowed to incubate for an additional 30 min. Histamine released into the supernatant is measured using an automated fluorometric technique.

Sequence of PI3Kδ (O00329 whole entry S253N): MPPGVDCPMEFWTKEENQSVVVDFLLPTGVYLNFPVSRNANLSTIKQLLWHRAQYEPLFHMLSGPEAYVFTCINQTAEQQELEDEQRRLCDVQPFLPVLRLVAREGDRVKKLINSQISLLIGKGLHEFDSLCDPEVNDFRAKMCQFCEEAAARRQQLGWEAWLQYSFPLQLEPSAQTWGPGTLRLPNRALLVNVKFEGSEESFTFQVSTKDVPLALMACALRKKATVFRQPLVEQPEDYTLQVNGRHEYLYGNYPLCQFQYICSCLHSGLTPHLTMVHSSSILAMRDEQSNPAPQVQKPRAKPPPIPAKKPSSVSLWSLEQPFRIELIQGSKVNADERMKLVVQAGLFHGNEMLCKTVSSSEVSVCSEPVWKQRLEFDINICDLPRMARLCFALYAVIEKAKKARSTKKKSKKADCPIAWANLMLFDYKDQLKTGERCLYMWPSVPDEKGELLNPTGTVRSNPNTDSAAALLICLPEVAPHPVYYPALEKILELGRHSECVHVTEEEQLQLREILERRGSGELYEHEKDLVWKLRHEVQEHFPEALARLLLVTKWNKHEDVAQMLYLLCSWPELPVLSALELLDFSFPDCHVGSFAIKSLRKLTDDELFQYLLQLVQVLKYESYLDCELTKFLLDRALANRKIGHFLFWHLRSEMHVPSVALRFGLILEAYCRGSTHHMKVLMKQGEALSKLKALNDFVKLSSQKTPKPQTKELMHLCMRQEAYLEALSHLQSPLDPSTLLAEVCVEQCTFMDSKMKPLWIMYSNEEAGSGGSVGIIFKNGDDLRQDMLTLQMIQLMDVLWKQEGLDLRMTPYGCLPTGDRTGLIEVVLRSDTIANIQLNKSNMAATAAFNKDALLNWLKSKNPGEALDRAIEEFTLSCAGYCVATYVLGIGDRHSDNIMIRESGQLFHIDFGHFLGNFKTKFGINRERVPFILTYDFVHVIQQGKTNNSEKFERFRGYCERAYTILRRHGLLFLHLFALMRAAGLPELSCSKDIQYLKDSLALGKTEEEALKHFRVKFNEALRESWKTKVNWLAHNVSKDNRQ
Sequence of PI3Kδ (P27986 whole entry partner): as the sequence (P27986 whole entry partner) above

Structure (SMILES)	IC50 [1] [nM]	EC50 [2] [nM]	Beta-Delta Ratio [3]	Gamma-Delta Ratio [4]	Alpha-Delta Ratio [5]	EC50 [6] [nM]	inhibition at 10 µM [7] [%]
CC[C@H](Nc1ncnc2[nH]cnc12)c1nc2cccc(Cl)c2c(=O)n1-c1cc(F)cc(F)c1 [Compound 117, (S)-5-chloro-3-(3,5-difluoro-phenyl)-2-[1-(9H-purin-6-ylamino)-propyl]-3H-quinazolin-4-one]	12	382	78	67	662	1.6	–
O=c1cc(N2CCOCC2)oc2c(-c3ccccc3)cccc12 [LY294002]	–	–	–	–	–	–	~100

Second part, led by results:

IC50 [1] [nM]	EC50 [2] [nM]	Beta-Delta Ratio [3]	Gamma-Delta Ratio [4]	Alpha-Delta Ratio [5]	EC50 [6] [nM]	Structure (SMILES)	inhibition at 10 µM [7] [%]
26	584	94	62	721	–	CCC(Nc1ncnc2[nH]cnc12)c1nc2cccc(C)c2c(=O)n1-c1cc(F)cc(F)c1 (stereo not drawn) [Compound 93, 3-(3,5-difluoro-phenyl)-5-methyl-2-[1-(9H-purin-6-ylamino)-propyl]-3H-quinazolin-4-one]	–
16	84	74	66	608	4.6	CCC(Nc1ncnc2[nH]cnc12)c1nc2ccccc2c(=O)n1-c1ccccc1 (stereo not drawn) [Compound 98, 3-phenyl-2-[1-(9H-purin-6-ylamino)-propyl]-3H-quinazolin-4-one]	–
45	298	72	38	250	30.7	CCC(Nc1ncnc2[nH]cnc12)c1nc2cccc(Cl)c2c(=O)n1-c1c(F)cccc1F (stereo not drawn) [Compound 174, 5-chloro-3-(2,6-difluoro-phenyl)-2-[1-(9H-purin-6-ylamino)-propyl]-3H-quinazolin-4-one]	–
